One series deals with U-937. As to the kind of experiment: Inhibition of human recombinant VACM1 binding to VAL4 expressed in U937 cells at 1 uM by adhesion test. Type of series: cell-based.
Series [1] is described as follows: Inhibition of human recombinant VACM1 binding to VAL4 expressed in U937 cells by adhesion test. Type of series: cell-based. The following applies: u-937.
Series [2] can be described thus: Inhibition of T cell activation assessed as CD3-VACM interaction. In kind it is functional, cell-based, Homo sapiens.
Series [3] can be described thus: Inhibition of fibronectin binding to VAL4 expressed in Jurkat cells by adhesion test. In kind it is cell-based, Homo sapiens.
Series [4] in a line: Oral bioavailability in mouse. Type of series: ADME, organism-based. The following applies: in vivo.
Series [5] in a line: Oral bioavailability in rat. In kind it is ADME, organism-based. The following applies: in vivo.
The nature of series [6]: Oral bioavailability in dog. In kind it is ADME, organism-based, Canis lupus familiaris. The following applies: in vivo.
The nature of series [7]: Oral bioavailability in monkey. The following applies: rhesus monkey, in vivo. Type of series: ADME, organism-based, Macaca mulatta.
Series [8] in a line: Solubility at pH 7.4. Type of series: physicochemical. The following applies: buffer.
Series [9] can be described thus: Distribution coefficient, log D of the compound. Type of series: physicochemical. The following applies: octanol/water.
Series [10] concerns the target Integrin alpha-4/beta-1 (VLA-4) (Homo sapiens). The series is described as follows: Inhibition of VCAM binding to integrin alpha4beta1 by human whole blood assay.

In brackets after ≈: the same amount, converted by molar mass.

We go through 28 compounds from ChEMBL document CHEMBL1146257, “2,6-Quinolinyl derivatives as potent VLA-4 antagonists” (Bioorg Med Chem Lett, 2007).

By inhibition is commonly meant the change of the read-out against control, counted positive when it falls. Broadly, the IC50 is the concentration at which inhibition is half-maximal. Broadly, the bioavailability is the share of a dose that reaches the circulation, judged against a reference dose that is usually intravenous. The term solubility denotes how much of the substance goes into solution per volume. One may read the logD as lipophilicity at a set pH, counting ionised and neutral species.

Turning to `O=C(NC(Cc1ccc2nc(-c3ccccc3)ccc2c1)C(=O)O)c1c(Cl)cccc1Cl` (stereo not drawn), the inhibition in the series with U-937 was found to be 24%.

Turning to `O=C(NC(Cc1ccc2nc(-c3c(F)cccc3F)ccc2c1)C(=O)O)c1c(Cl)cccc1Cl` (stereo not drawn), in [1], the IC50 came out at 372 nM.

Take `CS(=O)(=O)c1ccc(-c2ccc3cc(CC(NC(=O)c4c(Cl)cccc4Cl)C(=O)O)ccc3n2)cc1` (stereo not drawn): the inhibition in the series with U-937 is 82%.

For the compound `O=C(NC(Cc1ccc2nc(-c3c(Cl)cccc3Cl)ccc2c1)C(=O)O)c1ccccc1` (stereo not drawn), in [1], the IC50 came to 5640 nM.

As to `O=C(NC(Cc1ccc2nc(-c3ccccc3C(F)(F)F)ccc2c1)C(=O)O)c1c(Cl)cccc1Cl` (stereo not drawn), the IC50 in series [1] came to 92 nM.

Take `O=C(NC(Cc1ccc2nc(-c3nccs3)ccc2c1)C(=O)O)c1c(Cl)cccc1Cl` (stereo not drawn): the inhibition in the series with U-937 was 38%.

For `O=C(O)C(Cc1ccc2nc(-c3c(Cl)cccc3Cl)ccc2c1)NC(=O)C1(c2ccc(Cl)cc2)CCCC1` (stereo not drawn), the IC50 in [1] came out at 6.6 nM.

With `O=C(NC(Cc1ccc2nc(-c3c(Cl)cccc3Cl)ccc2c1)C(=O)O)c1c(Cl)cccc1Cl` (stereo not drawn), in series [1], the IC50 amounted to 7.8 nM.

On to `Cc1cccc(C)c1C(=O)NC(Cc1ccc2nc(-c3c(Cl)cccc3Cl)ccc2c1)C(=O)O` (stereo not drawn), for which the IC50 in [1] amounted to 37.2 nM.

For the compound `COc1cccc(OC)c1-c1ccc(C[C@H](NC(=O)c2c(Cl)cccc2Cl)C(=O)O)cc1`, the IC50 in series [1] worked out at 18 nM; in series [2], 99 nM.

`O=C(NC(Cc1ccc2nc(-c3ccc(Cl)cc3Cl)ccc2c1)C(=O)O)c1c(Cl)cccc1Cl` (stereo not drawn): the IC50 in series [1] is 748 nM.

In the case of `O=C(NC(Cc1ccc2nc(-c3c(Cl)cccc3Cl)ccc2c1)C(=O)O)c1c(F)cccc1F` (stereo not drawn), the IC50 in series [1] was 435 nM.

Consider `O=C(N[C@@H](Cc1ccc2nc(-c3c(Cl)cccc3Cl)ccc2c1)C(=O)O)c1c(Cl)cccc1Cl`, for which the IC50 in series [1] was 3.9 nM; in series [3] it was 1.6 nM; in series [2] it was 43 nM; in series [10], 95 nM. Also, the bioavailability was found to be 35% in series [4], 41% in series [5], 59% in series [6] and 23% in series [7]. In series [8], this compound returned a solubility of 1.5 µg/mL (≈ 2.81 µM). Besides, the logD in [9] is 1.47.

With `O=C(NC(Cc1ccc2nc(-c3cc(Cl)nc(Cl)c3)ccc2c1)C(=O)O)c1c(Cl)cccc1Cl` (stereo not drawn), the 50% inhibitory concentration (IC50) in series [1] came out at 8.6 nM.

For `O=C(NC(Cc1ccc2nc(-c3ccccc3Br)ccc2c1)C(=O)O)c1c(Cl)cccc1Cl` (stereo not drawn), the IC50 in series [1] was found to be 154 nM.

As for `O=C(NC(Cc1ccc2nc(-c3c(F)cccc3Cl)ccc2c1)C(=O)O)c1c(Cl)cccc1Cl` (stereo not drawn), the IC50 in [1] turned out to be 20 nM.

`CS(=O)(=O)c1ccc(C(=O)NC(Cc2ccc3nc(-c4c(Cl)cccc4Cl)ccc3c2)C(=O)O)c(Cl)c1` (stereo not drawn): in series [1], the IC50 was 3.5 nM.

For the compound `O=C(NC(Cc1ccc2nc(-c3c(Cl)cccc3[N+](=O)[O-])ccc2c1)C(=O)O)c1c(Cl)cccc1Cl` (stereo not drawn), the IC50 in series [1] is 6.5 nM.

For `O=C(O)C(Cc1ccc2nc(-c3c(Cl)cccc3Cl)ccc2c1)NC(=O)[C@@H]1CCC(=O)N1Cc1ccccc1` (stereo partly drawn), the IC50 in series [1] came out at 15.3 nM.

Take `Cc1cc(Cl)c(C(=O)NC(Cc2ccc3nc(-c4c(Cl)cccc4Cl)ccc3c2)C(=O)O)c(Cl)n1` (stereo not drawn): in series [1], the IC50 is 7.9 nM.

With `O=C(NC(Cc1ccc2nc(-c3cc(C(F)(F)F)ccc3Cl)ccc2c1)C(=O)O)c1c(Cl)cccc1Cl` (stereo not drawn), the IC50 in series [1] came to 208 nM.

As to `O=C(NC(Cc1ccc2nc(-c3ccncc3)ccc2c1)C(=O)O)c1c(Cl)cccc1Cl` (stereo not drawn), the IC50 in series [1] was determined as 381 nM.

With `Cc1cccc(C)c1-c1ccc2cc(CC(NC(=O)c3c(Cl)cccc3Cl)C(=O)O)ccc2n1` (stereo not drawn), the IC50 in series [1] came out at 102 nM.

In the case of `O=C(N[C@H](Cc1ccc2nc(-c3c(Cl)cccc3Cl)ccc2c1)C(=O)O)c1c(Cl)cccc1Cl`, the IC50 in series [1] is more than 3200 nM.

On to `COc1cccc(OC)c1C(=O)NC(Cc1ccc2nc(-c3c(Cl)cccc3Cl)ccc2c1)C(=O)O` (stereo not drawn), for which, in [1], the IC50 was 53.7 nM.

For the compound `COc1ccc2ccccc2c1-c1ccc2cc(CC(NC(=O)c3c(Cl)cccc3Cl)C(=O)O)ccc2n1` (stereo not drawn), the IC50 in series [1] is 7.3 nM.

For `COc1cccc(OC)c1-c1ccc2cc(CC(NC(=O)c3c(Cl)cccc3Cl)C(=O)O)ccc2n1` (stereo not drawn), the IC50 in series [1] was found to be 20 nM.

For the compound `Cc1cccc(Cl)c1C(=O)NC(Cc1ccc2nc(-c3c(Cl)cccc3Cl)ccc2c1)C(=O)O` (stereo not drawn), in [1], the IC50 was 3.9 nM.
